{
  "source": "patent US4347319A",
  "about": "“Microbiological epoxidation process” (priority 1980, dated 1982)",
  "key": {"[1]": {"test_system": "Methylomonas methanica CRL M4P NRRL B-11,205", "assay": "Sec. alcohol oxidation by cell suspensions of methanol-grown cells", "format": "cell-based", "details": "sec. alcohol to methyl ketone"}, "[2]": {"test_system": "Methylococcus capsulatus CRL M1 NRRL B-11,219", "assay": "Sec. alcohol oxidation by cell suspensions of methanol-grown cells", "format": "cell-based", "details": "sec. alcohol to methyl ketone"}, "[3]": {"test_system": "Methylococcus capsulatus CRL 25 NRRL B-11,221", "assay": "Sec. alcohol oxidation by cell suspensions of methanol-grown cells", "format": "cell-based", "details": "sec. alcohol to methyl ketone"}, "[4]": {"test_system": "Methylobacter chroococcum CRL M6 NRRL B-11,214", "assay": "Sec. alcohol oxidation by cell suspensions of methanol-grown cells", "format": "cell-based", "details": "sec. alcohol to methyl ketone"}, "[5]": {"test_system": "cell extract of Torulopsis sp. strain A1 NRRL-Y-11,419", "assay": "Oxidation of secondary alcohols to methylketone by cell extracts of yeasts", "format": "biochemical"}, "Pichia sp. NRRL-Y-11328": {"test_system": "Pichia sp. NRRL-Y-11328", "assay": "Oxidation of sec-alcohols to ketones by cell suspensions of yeasts", "format": "cell-based", "details": "sec-alcohol to methyl ketone"}, "[6]": {"test_system": "Kloeckera sp. Strain A2 (NRRLY-11,420)", "assay": "Oxidation of sec-alcohols to ketones by cell suspensions of yeasts", "format": "cell-based", "details": "sec-alcohol to methyl ketone"}, "[7]": {"test_system": "purified secondary alcohol dehydrogenase from Pichia sp. NRRL Y-11,328", "assay": "Substrate specificity, electron acceptor and stoichiometry of purified yeast SADH", "format": "biochemical", "details": "examined spectrophotometrically"}, "[8]": {"test_system": "Candida utilis ATCC 26387", "assay": "Oxidation of sec-alcohols to ketones by cell suspensions of yeasts", "format": "cell-based", "details": "sec-alcohol to methyl ketone"}, "[9]": {"test_system": "cell extract of Candida utilis ATCC 26,387", "assay": "Oxidation of secondary alcohols to methylketone by cell extracts of yeasts", "format": "biochemical"}, "[10]": {"test_system": "cell extract of Kloeckera sp. strain A2 NRRL-Y-11,420", "assay": "Oxidation of secondary alcohols to methylketone by cell extracts of yeasts", "format": "biochemical"}, "[11]": {"test_system": "Torulopsis sp. Strain A1 (NRRLY-11,419)", "assay": "Oxidation of sec-alcohols to ketones by cell suspensions of yeasts", "format": "cell-based", "details": "sec-alcohol to methyl ketone"}, "[12]": {"test_system": "Hansenula polymorpha ATCC 26012", "assay": "Oxidation of sec-alcohols to ketones by cell suspensions of yeasts", "format": "cell-based", "details": "sec-alcohol to methyl ketone"}, "[13]": {"test_system": "methylotrophic microorganism strains of the present invention grown on methanol", "assay": "Comparative test with methanol-grown washed cell suspensions", "format": "cell-based"}, "[14]": {"target": "T1, cell-free fractions of Methylococcus capsulatus (CRL M1, NRRL B-11,219) (Methylococcus capsulatus, UniProt G1UBD1+Q603F1+Q607G3)", "T1 sequence (G1UBD1 33-414)": "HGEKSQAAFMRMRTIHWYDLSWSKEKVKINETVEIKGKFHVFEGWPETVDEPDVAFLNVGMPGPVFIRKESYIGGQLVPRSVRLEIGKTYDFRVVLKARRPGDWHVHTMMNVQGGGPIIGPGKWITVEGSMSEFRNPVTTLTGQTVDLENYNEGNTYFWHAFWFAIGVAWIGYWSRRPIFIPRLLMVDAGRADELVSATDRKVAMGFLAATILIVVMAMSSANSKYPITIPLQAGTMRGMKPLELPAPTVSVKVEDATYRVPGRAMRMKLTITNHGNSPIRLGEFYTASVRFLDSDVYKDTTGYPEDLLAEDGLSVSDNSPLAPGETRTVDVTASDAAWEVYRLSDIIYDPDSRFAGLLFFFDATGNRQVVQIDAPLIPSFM", "T1 sequence (Q607G3 1-247)": "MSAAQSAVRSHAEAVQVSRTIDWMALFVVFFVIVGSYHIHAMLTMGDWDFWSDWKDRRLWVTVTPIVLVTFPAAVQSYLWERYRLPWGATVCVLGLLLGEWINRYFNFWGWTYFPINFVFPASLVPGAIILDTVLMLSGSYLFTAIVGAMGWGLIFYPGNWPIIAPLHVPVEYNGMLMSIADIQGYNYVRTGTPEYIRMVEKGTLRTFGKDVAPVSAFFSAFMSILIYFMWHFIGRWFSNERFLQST", "T1 sequence (Q603F1 1-260)": "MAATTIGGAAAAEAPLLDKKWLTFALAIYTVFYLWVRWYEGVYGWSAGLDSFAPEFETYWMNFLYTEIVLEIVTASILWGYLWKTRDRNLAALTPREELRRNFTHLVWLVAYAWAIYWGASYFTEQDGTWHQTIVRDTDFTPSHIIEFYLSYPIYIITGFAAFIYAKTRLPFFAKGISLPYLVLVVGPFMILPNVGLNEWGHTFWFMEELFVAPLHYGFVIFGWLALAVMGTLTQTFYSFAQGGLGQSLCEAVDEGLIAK", "assay": "Epoxidation and hydroxylation activities in cell-free fractions", "format": "biochemical", "procedure": "Cells of methane-grown Methylococcus capsulatus (CRL M1, NRRL B-11,219) were obtained by the method of Example 1. […] However, when the cells were disrupted by passing twice through a French pressure cell (1000 Kg. pressure), both activities were found in the crude extract after 10,000×g. centrifugation. All of the activity in the crude extract was collected as a particulate fraction by further centrifugation of the crude extract at 40,000×g. for 90 min. at 4° C.\n^a The cells were disrupted by French Press as described above. NADH\n[…] was added into the reaction mixture where indicated.\nThe amount of protein in the particulate fraction and the 40,000 ×\ng. supernatant fraction used was 1 mg. and 2.5 mg., respectively. Each\nassay contained 0.5 ml. reaction mixture."}, "[15]": {"test_system": "cell-free particulate fractions derived from the methylotrophic microorganisms", "assay": "Inhibition of conversion of C3 -C6 n-alkanes to sec. alcohols", "format": "biochemical", "details": "oxygen and NADH present", "description": "The conditions for preparing the cell suspensions or the cell-free particulate fractions from methane-grown methylotroph microorganisms is the same as described above."}, "[16]": {"details": "2-butanol as a substrate, spectrophotometrically"}, "[17]": {"details": "methanol-grown, cell extract + NAD^+, sec. alcohol to methyl ketone, gas chromatography"}, "[18]": {"details": "particulate fraction (10,000 × g.-40,000 × g.), 1 mg. protein"}, "[19]": {"details": "supernatant fraction of 40,000 × g., 2.5 mg. protein"}},
  "data": [
    {"compound": "CCC(C)O", "note": "(stereo not shown) [2-Butanol]", "values": [
      {"measurement": "Conversion Rates", "setting": "[1]", "value": 2.5, "unit": "μmoles/hr/mg protein"},
      {"measurement": "Conversion Rates", "setting": "[2]", "value": 2.0, "unit": "μmoles/hr/mg protein"},
      {"measurement": "Conversion Rates", "setting": "[3]", "value": 0.95, "unit": "μmoles/hr/mg protein"},
      {"measurement": "Conversion Rates", "setting": "[4]", "value": 1.4, "unit": "μmoles/hr/mg protein"},
      {"measurement": "specific activities", "setting": "[5]; [16]", "value": "62 nmoles NAD^+ reduced per min. per mg. protein"},
      {"measurement": "Conversion Rate", "setting": "[5]; [17]", "value": 4.9, "unit": "μmoles/hr/mg Protein"},
      {"measurement": "Conversion Rate", "setting": "Pichia sp. NRRL-Y-11328; growth substrate Ethanol", "value": "6.2 μmoles/hr/mg of protein"},
      {"measurement": "Conversion Rate", "setting": "Pichia sp. NRRL-Y-11328; growth substrate Methanol", "value": "6.8 μmoles/hr/mg of protein"},
      {"measurement": "Conversion Rate", "setting": "Pichia sp. NRRL-Y-11328; growth substrate Methylamine", "value": "5.1 μmoles/hr/mg of protein"},
      {"measurement": "Conversion Rate", "setting": "Pichia sp. NRRL-Y-11328; growth substrate Methylformate", "value": "6.9 μmoles/hr/mg of protein"},
      {"measurement": "Conversion Rate", "setting": "Pichia sp. NRRL-Y-11328; growth substrate Propylamine", "value": "2.1 μmoles/hr/mg of protein"},
      {"measurement": "Conversion Rate", "setting": "[6]; growth substrate Ethanol", "value": "5.7 μmoles/hr/mg of protein"},
      {"measurement": "Conversion Rate", "setting": "[6]; growth substrate Methanol", "value": "5.9 μmoles/hr/mg of protein"},
      {"measurement": "Conversion Rate", "setting": "[6]; growth substrate Methylamine", "value": "5.4 μmoles/hr/mg of protein"},
      {"measurement": "Conversion Rate", "setting": "[6]; growth substrate Methylformate", "value": "5.9 μmoles/hr/mg of protein"},
      {"measurement": "Conversion Rate", "setting": "[6]; growth substrate Propylamine", "value": "4.2 μmoles/hr/mg of protein"},
      {"measurement": "oxidation by the purified enzyme", "setting": "[7]", "value": "catalyzed the oxidation"},
      {"measurement": "Conversion Rate", "setting": "[8]; growth substrate Ethanol", "value": "5.2 μmoles/hr/mg of protein"},
      {"measurement": "Conversion Rate", "setting": "[8]; growth substrate Methanol", "value": "6.8 μmoles/hr/mg of protein"},
      {"measurement": "Conversion Rate", "setting": "[8]; growth substrate Methylamine", "value": "5.0 μmoles/hr/mg of protein"},
      {"measurement": "Conversion Rate", "setting": "[8]; growth substrate Methylformate", "value": "6.2 μmoles/hr/mg of protein"},
      {"measurement": "Conversion Rate", "setting": "[8]; growth substrate Propylamine", "value": "4.2 μmoles/hr/mg of protein"},
      {"measurement": "specific activities", "setting": "[9]; [16]", "value": "78 nmoles NAD^+ reduced per min. per mg. protein"},
      {"measurement": "Conversion Rate", "setting": "[9]; [17]", "value": 4.92, "unit": "μmoles/hr/mg Protein"},
      {"measurement": "specific activities", "setting": "[10]; [16]", "value": "90 nmoles NAD^+ reduced per min. per mg. protein"},
      {"measurement": "Conversion Rate", "setting": "[10]; [17]", "value": 5.9, "unit": "μmoles/hr/mg Protein"},
      {"measurement": "Conversion Rate", "setting": "[11]; growth substrate Ethanol", "value": "4.7 μmoles/hr/mg of protein"},
      {"measurement": "Conversion Rate", "setting": "[11]; growth substrate Methanol", "value": "4.9 μmoles/hr/mg of protein"},
      {"measurement": "Conversion Rate", "setting": "[11]; growth substrate Methylamine", "value": "4.5 μmoles/hr/mg of protein"},
      {"measurement": "Conversion Rate", "setting": "[11]; growth substrate Methylformate", "value": "4.9 μmoles/hr/mg of protein"},
      {"measurement": "Conversion Rate", "setting": "[11]; growth substrate Propylamine", "value": "3.8 μmoles/hr/mg of protein"},
      {"measurement": "Conversion Rate", "setting": "[12]; growth substrate Ethanol", "value": "4.8 μmoles/hr/mg of protein"},
      {"measurement": "Conversion Rate", "setting": "[12]; growth substrate Methanol", "value": "5.8 μmoles/hr/mg of protein"},
      {"measurement": "Conversion Rate", "setting": "[12]; growth substrate Methylamine", "value": "4.5 μmoles/hr/mg of protein"},
      {"measurement": "Conversion Rate", "setting": "[12]; growth substrate Methylformate", "value": "5.2 μmoles/hr/mg of protein"},
      {"measurement": "Conversion Rate", "setting": "[12]; growth substrate Propylamine", "value": "4.0 μmoles/hr/mg of protein"}
    ]},
    {"compound": "C", "note": "[Methane]", "values": [
      {"measurement": "hydroxylation / epoxidation ability", "setting": "[13]", "value": "did not possess the ability"},
      {"measurement": "Oxidation Rate", "setting": "[14]; [18]", "value": 500, "unit": "nmoles/30 min/assay"},
      {"measurement": "Oxidation Rate", "setting": "[14]; particulate fraction + NADH", "value": 650, "unit": "nmoles/30 min/assay"},
      {"measurement": "Oxidation Rate", "setting": "[14]; supernatant fraction + NADH", "value": 0, "unit": "nmoles/30 min/assay"},
      {"measurement": "Oxidation Rate", "setting": "[14]; [19]", "value": 0, "unit": "nmoles/30 min/assay"}
    ]},
    {"compound": "C=CC", "note": "[Propylene]", "values": [
      {"measurement": "inhibition of conversion of n-alkanes to sec. alcohols", "setting": "[15]", "value": "inhibited"},
      {"measurement": "Oxidation Rate", "setting": "[14]; [18]", "value": 750, "unit": "nmoles/30 min/assay"},
      {"measurement": "Oxidation Rate", "setting": "[14]; particulate fraction + NADH", "value": 900, "unit": "nmoles/30 min/assay"},
      {"measurement": "Oxidation Rate", "setting": "[14]; supernatant fraction + NADH", "value": 0, "unit": "nmoles/30 min/assay"},
      {"measurement": "Oxidation Rate", "setting": "[14]; [19]", "value": 0, "unit": "nmoles/30 min/assay"}
    ]}
  ]
}
